# In patent publication US12465659B2, “Iron(III) complexes having new contrast agent properties, for magnetic resonance imaging” (CHARITÉ—UNIVERSITÄTSMEDIZIN BERLIN, priority 2019, dated 2025):
# Tests used:
# [1] = T1-relaxivity measurements at different magnetic field strengths in water and foetal bovine serum; assay type: physicochemical
# Protocol: For the subsequent T1-relaxivity measurements which were carried out, ultra-pure water and foetal bovine serum (FBS, pH 7.7) were used as the solvent for the metallic complexes. The relaxivity measurements at different magnetic field strengths were carried out on the following instruments: 0.94 T with a NMR relaxometer (Bruker Minispec mq 40, Germany), 1.5 T with a SIEMENS MAGNETOM Sonata MRI, 3 T with a SIEMENS MAGNETOM Lumina MRI and 7 T with a Bruker Pharmascan Kleintier-MRI.
# [2] = excretion route of the iron complex; conditions: in vivo
# [3] = pH dependency of T1- and T2-relaxivity in water (0.94 T NMR relaxometer); assay type: physicochemical; conditions: pH<6
# Source text: At pH<6, a maximum T1-relaxivity of 1.7 l·mmol^−1·s^−1 or T2-relaxivity of 1.9 l·mmol^−1·s^−1 was reached.
SMILES,"T1-relaxivity (r1) per metal ion ([1]; 0.94 T, 37° C., FBS (pH 7.7))","T1-relaxivity per molecule ([1]; 0.94 T, 37° C., FBS (pH 7.7))","T1-relaxivity (r1) per metal ion ([1]; 0.94 T, 37° C., water)","T1-relaxivity per molecule ([1]; 0.94 T, 37° C., water)","T1-relaxivity (r1) per metal ion ([1]; 1.5 T, 23° C., FBS (pH 7.7))","T1-relaxivity per molecule ([1]; 1.5 T, 23° C., FBS (pH 7.7))","T1-relaxivity (r1) per metal ion ([1]; 1.5 T, 23° C., water)","T1-relaxivity per molecule ([1]; 1.5 T, 23° C., water)","T1-relaxivity (r1) per metal ion ([1]; 3.0 T, 37° C., FBS (pH 7.7))","T1-relaxivity per molecule ([1]; 3.0 T, 37° C., FBS (pH 7.7))","T1-relaxivity (r1) per metal ion ([1]; 3.0 T, 37° C., water)","T1-relaxivity per molecule ([1]; 3.0 T, 37° C., water)","T1-relaxivity (r1) per metal ion ([1]; 7.0 T, 37° C., FBS (pH 7.7))","T1-relaxivity per molecule ([1]; 7.0 T, 37° C., FBS (pH 7.7))","T1-relaxivity (r1) per metal ion ([1]; 7.0 T, 37° C., water)","T1-relaxivity per molecule ([1]; 7.0 T, 37° C., water)",excretion route [2],maximum T1-relaxivity [3],maximum T2-relaxivity [3]
O=C(O)CN(CC(=O)O)[C@@H]1CCCC[C@H]1N(CC(=O)O)CC(=O)N[C@H]1CC[C@H](NC(=O)CN(CC(=O)O)[C@@H]2CCCC[C@H]2N(CC(=O)O)CC(=O)O)CC1 [(1-2)],2.18 L/mmol/s,4.36 L/mmol/s,1.99 L/mmol/s,3.98 L/mmol/s,3.26 L/mmol/s,6.52 L/mmol/s,2.75 L/mmol/s,5.5 L/mmol/s,3.39 L/mmol/s,6.78 L/mmol/s,2.99 L/mmol/s,5.98 L/mmol/s,3.23 L/mmol/s,6.46 L/mmol/s,2.65 L/mmol/s,5.3 L/mmol/s,liver excretion,,
NCCNC(=O)CN(CC(=O)O)[C@@H]1CCCC[C@H]1N(CC(=O)O)CC(=O)O [(2-1)],,,,,,,,,,,,,,,,,,1.7 L/mmol/s,1.9 L/mmol/s
N[C@H]1CC[C@H](NC(=O)CN(CC(=O)O)[C@@H]2CCCC[C@H]2N(CC(=O)O)CC(=O)O)CC1 [(2-2)],2.01 L/mmol/s,,1.92 L/mmol/s,,2.74 L/mmol/s,,2.27 L/mmol/s,,3.06 L/mmol/s,,2.64 L/mmol/s,,2.61 L/mmol/s,,2.38 L/mmol/s,,,,
